Like-named read-outs stand apart in the source and are kept apart here.

Here are results for 9 compounds from patent US10308639B2, “Phosphatidylinositol 3-kinase inhibitors” (Gilead Sciences, Inc., priority 2014, dated 2019).

Holding throughout (format): biochemical
In one experiment the target is T1, PI3Kγ (Homo sapiens, UniProt P48736).
T1 construct: made in house
Kind of experiment: TR-FRET enzymatic activity assay, PI3Kγ. As to conditions: read-out: PI3Kγ IC50. Put shortly:
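Each PI3K isoform is tested in an enzymatic format. Signal comes from time-resolved fluorescence energy transfer.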
In general terms: TR-FRET usually uses a lanthanide donor and a delayed reading to cut background.

A further experiment concerns the target T2, PI3Kβ (Homo sapiens, UniProt P42338).
T2 construct: made in house
Kind of experiment: TR-FRET enzymatic activity assay, PI3Kβ.

A further experiment concerns the target T3, PI3Kδ (Homo sapiens, UniProt O00329).
T3 construct: made in house
Kind of experiment: TR-FRET enzymatic activity assay, PI3Kδ.

[1] abbreviates: Table 2, TR-FRET, 2x Km ATP, 30 minutes at 25° C.

T2 sequence (P42338 whole entry): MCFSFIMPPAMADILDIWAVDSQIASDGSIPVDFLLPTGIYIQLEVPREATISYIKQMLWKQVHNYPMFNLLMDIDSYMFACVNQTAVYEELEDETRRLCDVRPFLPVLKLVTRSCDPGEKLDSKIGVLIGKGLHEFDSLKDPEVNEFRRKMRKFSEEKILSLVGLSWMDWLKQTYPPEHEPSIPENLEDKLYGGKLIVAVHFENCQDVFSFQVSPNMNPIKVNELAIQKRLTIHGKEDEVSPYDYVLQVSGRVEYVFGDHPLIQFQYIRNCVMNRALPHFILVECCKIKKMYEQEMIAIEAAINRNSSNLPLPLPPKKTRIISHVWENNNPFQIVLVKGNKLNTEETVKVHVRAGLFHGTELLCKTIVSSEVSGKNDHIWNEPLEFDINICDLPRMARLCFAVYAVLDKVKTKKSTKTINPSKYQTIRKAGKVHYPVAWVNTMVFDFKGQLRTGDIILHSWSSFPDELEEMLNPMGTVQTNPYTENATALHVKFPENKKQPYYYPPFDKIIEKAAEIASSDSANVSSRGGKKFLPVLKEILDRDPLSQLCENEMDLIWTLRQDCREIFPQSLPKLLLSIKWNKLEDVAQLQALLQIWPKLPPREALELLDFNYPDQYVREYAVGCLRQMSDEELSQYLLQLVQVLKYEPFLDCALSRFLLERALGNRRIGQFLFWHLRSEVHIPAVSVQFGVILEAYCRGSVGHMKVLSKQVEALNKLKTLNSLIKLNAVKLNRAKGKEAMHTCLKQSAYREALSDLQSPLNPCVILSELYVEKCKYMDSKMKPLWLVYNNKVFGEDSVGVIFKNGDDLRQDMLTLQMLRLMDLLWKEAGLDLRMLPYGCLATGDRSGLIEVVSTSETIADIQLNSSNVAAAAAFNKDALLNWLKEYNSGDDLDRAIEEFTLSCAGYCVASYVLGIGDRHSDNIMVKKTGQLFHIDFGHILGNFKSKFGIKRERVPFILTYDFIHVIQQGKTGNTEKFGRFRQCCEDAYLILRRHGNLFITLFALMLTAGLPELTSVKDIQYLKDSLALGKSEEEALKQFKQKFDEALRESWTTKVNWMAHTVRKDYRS
T2 sequence (P27986 whole entry partner): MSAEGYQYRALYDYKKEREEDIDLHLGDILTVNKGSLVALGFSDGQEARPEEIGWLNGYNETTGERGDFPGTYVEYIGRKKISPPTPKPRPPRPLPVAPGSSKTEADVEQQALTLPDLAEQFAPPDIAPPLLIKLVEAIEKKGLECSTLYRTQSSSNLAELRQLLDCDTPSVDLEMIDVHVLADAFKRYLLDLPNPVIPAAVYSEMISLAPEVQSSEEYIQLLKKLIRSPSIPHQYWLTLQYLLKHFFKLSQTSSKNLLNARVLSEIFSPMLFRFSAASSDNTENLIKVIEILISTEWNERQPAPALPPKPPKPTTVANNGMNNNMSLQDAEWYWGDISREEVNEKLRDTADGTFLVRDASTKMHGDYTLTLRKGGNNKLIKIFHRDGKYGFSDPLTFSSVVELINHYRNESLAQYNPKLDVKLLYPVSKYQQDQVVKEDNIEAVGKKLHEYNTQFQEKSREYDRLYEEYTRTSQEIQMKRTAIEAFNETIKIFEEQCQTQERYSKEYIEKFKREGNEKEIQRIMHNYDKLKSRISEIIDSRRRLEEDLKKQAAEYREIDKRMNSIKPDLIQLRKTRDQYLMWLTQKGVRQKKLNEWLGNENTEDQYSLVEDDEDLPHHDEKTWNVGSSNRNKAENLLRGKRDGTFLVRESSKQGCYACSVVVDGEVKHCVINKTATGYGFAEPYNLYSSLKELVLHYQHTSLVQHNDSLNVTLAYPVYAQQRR
T3 sequence (O00329 whole entry): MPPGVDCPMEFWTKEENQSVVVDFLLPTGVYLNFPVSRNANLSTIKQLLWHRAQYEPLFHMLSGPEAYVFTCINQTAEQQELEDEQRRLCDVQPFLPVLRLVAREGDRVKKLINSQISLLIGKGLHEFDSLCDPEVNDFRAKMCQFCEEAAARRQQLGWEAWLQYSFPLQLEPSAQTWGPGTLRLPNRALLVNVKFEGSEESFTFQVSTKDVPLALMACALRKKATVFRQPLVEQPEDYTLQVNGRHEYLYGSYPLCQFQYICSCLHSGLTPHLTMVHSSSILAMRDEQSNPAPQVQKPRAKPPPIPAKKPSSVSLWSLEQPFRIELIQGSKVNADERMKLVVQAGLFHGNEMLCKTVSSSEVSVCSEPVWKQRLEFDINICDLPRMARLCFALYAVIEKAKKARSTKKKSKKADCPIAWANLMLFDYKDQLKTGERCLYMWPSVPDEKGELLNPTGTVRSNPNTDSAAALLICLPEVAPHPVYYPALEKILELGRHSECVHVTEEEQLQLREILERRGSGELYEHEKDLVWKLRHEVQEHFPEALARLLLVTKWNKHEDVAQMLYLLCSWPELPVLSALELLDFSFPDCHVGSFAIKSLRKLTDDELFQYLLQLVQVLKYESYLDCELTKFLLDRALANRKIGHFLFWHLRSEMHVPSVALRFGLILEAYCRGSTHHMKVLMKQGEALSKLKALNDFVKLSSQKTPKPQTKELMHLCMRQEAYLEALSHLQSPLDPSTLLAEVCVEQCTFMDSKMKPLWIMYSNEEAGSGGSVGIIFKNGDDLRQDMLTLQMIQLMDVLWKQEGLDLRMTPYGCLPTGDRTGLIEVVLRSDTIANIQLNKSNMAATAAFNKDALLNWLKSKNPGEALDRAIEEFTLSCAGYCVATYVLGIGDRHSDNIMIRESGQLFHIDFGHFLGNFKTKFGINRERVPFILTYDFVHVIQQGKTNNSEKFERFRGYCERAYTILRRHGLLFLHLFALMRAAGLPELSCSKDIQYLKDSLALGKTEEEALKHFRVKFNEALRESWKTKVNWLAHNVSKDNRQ
T3 sequence (P27986 whole entry partner): as the sequence (P27986 whole entry partner) above
T1 sequence (P48736 whole entry): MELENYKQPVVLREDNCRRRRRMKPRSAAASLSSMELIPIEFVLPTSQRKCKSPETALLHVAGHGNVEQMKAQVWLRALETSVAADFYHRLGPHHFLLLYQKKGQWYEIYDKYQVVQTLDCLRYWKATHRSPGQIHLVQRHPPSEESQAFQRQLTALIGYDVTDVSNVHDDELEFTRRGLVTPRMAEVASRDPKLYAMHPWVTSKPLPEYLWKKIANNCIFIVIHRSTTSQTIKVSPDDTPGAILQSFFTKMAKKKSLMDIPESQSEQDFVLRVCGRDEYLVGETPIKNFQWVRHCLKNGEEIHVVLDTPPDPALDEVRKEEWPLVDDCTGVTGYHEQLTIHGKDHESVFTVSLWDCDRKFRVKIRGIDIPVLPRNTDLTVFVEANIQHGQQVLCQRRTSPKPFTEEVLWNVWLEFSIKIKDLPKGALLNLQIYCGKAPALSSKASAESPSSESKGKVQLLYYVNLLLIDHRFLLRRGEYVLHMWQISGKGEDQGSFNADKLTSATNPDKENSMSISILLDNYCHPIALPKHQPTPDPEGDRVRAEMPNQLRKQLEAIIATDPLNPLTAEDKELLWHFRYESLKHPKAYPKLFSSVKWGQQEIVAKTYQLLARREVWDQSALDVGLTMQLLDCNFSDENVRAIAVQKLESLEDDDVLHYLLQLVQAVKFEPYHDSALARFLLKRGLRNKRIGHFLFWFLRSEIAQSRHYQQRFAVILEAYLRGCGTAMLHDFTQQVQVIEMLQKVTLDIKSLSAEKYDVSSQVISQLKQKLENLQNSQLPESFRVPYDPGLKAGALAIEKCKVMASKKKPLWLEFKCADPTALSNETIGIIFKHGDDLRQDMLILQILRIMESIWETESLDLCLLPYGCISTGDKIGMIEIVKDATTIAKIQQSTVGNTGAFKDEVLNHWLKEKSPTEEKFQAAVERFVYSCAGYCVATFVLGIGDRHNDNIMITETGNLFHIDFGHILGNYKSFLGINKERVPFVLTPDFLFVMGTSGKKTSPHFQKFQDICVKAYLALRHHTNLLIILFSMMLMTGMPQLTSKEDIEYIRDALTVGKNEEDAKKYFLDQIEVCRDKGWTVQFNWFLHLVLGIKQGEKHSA

As a reminder, the IC50 is the concentration that inhibits the measured activity by half. As for `C[C@H](Nc1nc(N)nc(C(F)F)c1C#N)c1nc2cccc(C(F)F)c2c(=O)n1-c1cc[nH]n1` [Compound 176, (S)-2-amino-4-(difluoromethyl)-6-((1-(5-(difluoromethyl)-4-oxo-3-(1H-pyrazol-3-yl)-3,4-dihydroquinazolin-2-yl)ethyl)amino)pyrimidine-5-carbonitrile], the IC50 at PI3Kγ (Table 2a, same assay) was 2000 nM; on PI3Kβ (Table 2a, same assay), 26 nM; against PI3Kδ (Table 2a, same assay), 18 nM.
Consider `Cc1c[nH]nc1-n1c([C@@H](Nc2nc(N)nc(N)c2Cl)C2CC2)nc2c(C#N)cccc2c1=O` [Compound 204, (S)-2-(cyclopropyl((2,6-diamino-5-chloropyrimidin-4-yl)amino)methyl)-3-(4-methyl-1H-pyrazol-3-yl)-4-oxo-3,4-dihydroquinazoline-8-carbonitrile], for which the IC50 is above 10000 nM on PI3Kγ (Table 2a, same assay); 3200 nM against PI3Kβ (Table 2a, same assay); 310 nM at PI3Kδ (Table 2a, same assay).
With `N#Cc1c(N[C@H](c2nc3c(F)cc(F)cc3c(=O)n2-c2cc[nH]n2)C2CC2)nc(N)nc1C(F)F` [Compound 195, (S)-2-amino-4-((cyclopropyl(6,8-difluoro-4-oxo-3-(1H-pyrazol-3-yl)-3,4-dihydroquinazolin-2-yl)methyl)amino)-6-(difluoromethyl)pyrimidine-5-carbonitrile], the IC50 at PI3Kγ (Table 2a, same assay) came to 3800 nM; against PI3Kβ (Table 2a, same assay), 42 nM; against PI3Kδ (Table 2a, same assay), 24 nM.
For `Nc1nc(N)c(Cl)c(N[C@H](c2nc3c(Cl)cc(F)cc3c(=O)n2-c2cc[nH]n2)C2CCC2)n1` [Compound 129, (S)-8-chloro-2-(cyclobutyl((2,6-diamino-5-chloropyrimidin-4-yl)amino)methyl)-6-fluoro-3-(1H-pyrazol-3-yl)quinazolin-4(3H)-one] the same measures were above 10000 nM, 270 nM and 86 nM.
For the compound `N#Cc1c(N)nc(N)nc1N1CCC[C@H]1c1nc2cccc(Cl)c2c(=O)n1-c1cc[nH]n1` [Compound 24, (S)-2,4-diamino-6-(2-(5-chloro-4-oxo-3-(1H-pyrazol-3-yl)-3,4-dihydroquinazolin-2-yl)pyrrolidin-1-yl)pyrimidine-5-carbonitrile], the IC50 on PI3Kγ (setting [1]) worked out at 780 nM; against PI3Kβ (setting [1]), 22 nM; on PI3Kδ (setting [1]) it was 4 nM.
In the same order, the values of `CC[C@H](Nc1ncnc2scnc12)c1nc2cccc(C#N)c2c(=O)n1-c1cn[nH]c1` [Compound 103, (S)-4-oxo-3-(1H-pyrazol-4-yl)-2-(1-(thiazolo[5,4-d]pyrimidin-7-ylamino)propyl)-3,4-dihydroquinazoline-5-carbonitrile] are 8700 nM, 620 nM and 100 nM.
With `CC[C@H](Nc1ncnn2ccnc12)c1nc2c(Cl)ccc(Cl)c2c(=O)n1-c1cc[nH]n1` [Compound 43, (S)-5,8-dichloro-2-(1-(imidazo[2,1-f][1,2,4]triazin-4-ylamino)propyl)-3-(1H-pyrazol-3-yl)quinazolin-4(3H)-one], the IC50 is above 10000 nM on PI3Kγ, 39 nM at PI3Kβ (setting [1]) and 9 nM on PI3Kδ (setting [1]).
`CC[C@H](NC(=O)c1cnn2cccnc12)c1nc2c(Cl)ccc(Cl)c2c(=O)n1-c1cn[nH]c1` [Compound 119, (S)—N-(1-(5,8-dichloro-4-oxo-3-(1H-pyrazol-4-yl)-3,4-dihydroquinazolin-2-yl)propyl)pyrazolo[1,5-a]pyrimidine-3-carboxamide]: the IC50 was determined as 7200 nM on PI3Kγ (setting [1]), 360 nM on PI3Kβ (setting [1]) and 170 nM against PI3Kδ (setting [1]).
With `CC[C@H](Nc1ncnc2scnc12)c1nc2c(Cl)ccc(Cl)c2c(=O)n1-c1n[nH]cc1Br` [Compound 86, (S)-3-(4-bromo-1H-pyrazol-3-yl)-5,8-dichloro-2-(1-(thiazolo[5,4-d]pyrimidin-7-ylamino)propyl)quinazolin-4(3H)-one], the IC50 at PI3Kγ is above 10000 nM; against PI3Kβ (setting [1]) it was 340 nM; on PI3Kδ (setting [1]), 19 nM.
